PubChem BioAssay AID328 (DTP/NCI, 2004)
Where “and” joins values, the source holds several entries; their conditions need not be identical. Equal values may be shown once. Inconclusive results and toxic doses are left out. Non-standard residues stand in square brackets, D forms with d. Residues, ends and D or L forms follow the SMILES beside them. ξ: configuration not given here. ξPhe(4-N(CH2CH2Cl)2) = NC(Cc1ccc(N(CCCl)CCCl)cc1)C(=O)O

Test system: BDF1 mice, P388 leukemia ip, median survival T/C
Experiment: NCI In Vivo Anticancer Drug Screen. Data for tumor model P388 Leukemia (intraperitoneal) in B6D2F1 (BDF1) mice
Conditions: endpoint: median survival time, higher = longer survival
Method in brief: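 T/C = treated-group survival ÷ vehicle-control survival; tumour transplanted into mice before dosing.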

[1] = dose: 100.0 mg/kg/injection, schedule: Q04DX003 (ip), vehicle: saline with Tween-80
[2] = dose: 400.0 mg/kg/injection, schedule: Q04DX003 (ip), vehicle: saline with Tween-80
[3] = dose: 20.0 mg/kg/injection, schedule: Q04DX003 (ip), vehicle: saline with Tween-80
[4] = dose: 25.0 mg/kg/injection, schedule: Q01DX009 (ip), vehicle: Klucel (hydroxypropylcellulose) (HPC)
[5] = dose: 200.0 mg/kg/injection, schedule: Q04DX003 (ip), vehicle: saline with Tween-80
[6] = dose: 50.0 mg/kg/injection, schedule: Q01DX009 (ip), vehicle: saline with Tween-80
[7] = dose: 100.0 mg/kg/injection, schedule: Q01DX009 (ip), vehicle: saline with Tween-80
[8] = dose: 12.5 mg/kg/injection, schedule: Q01DX009 (ip), vehicle: saline
[9] = dose: 200.0 mg/kg/injection, schedule: Q01DX009 (ip), vehicle: saline with Tween-80

In the case of `CCSc1ncc2cnccn12`, the T/C (dose: 0.37 mg/kg/injection, schedule: Q01DX009 (ip), vehicle: water) is reported as 108 % of control, the T/C (dose: 0.75 mg/kg/injection, schedule: Q01DX009 (ip), vehicle: water) is reported as 111 % of control and 112 % of control and the T/C (dose: 1.0 mg/kg/injection, schedule: Q01DX009 (ip), vehicle: water) is reported as 102 % of control. The T/C (dose: 1.5 mg/kg/injection, schedule: Q01DX009 (ip), vehicle: water) was 112 % of control and 117 % of control and 120 % of control, the T/C (dose: 2.0 mg/kg/injection, schedule: Q01DX009 (ip), vehicle: water) was 94 % of control and 105 % of control and the T/C (dose: 3.12 mg/kg/injection, schedule: Q04DX003 (ip), vehicle: water) was 100 % of control. The T/C (dose: 4.0 mg/kg/injection, schedule: Q01DX009 (ip), vehicle: water) was 94 % of control and 100 % of control, the T/C (dose: 5.0 mg/kg/injection, schedule: Q01DX009 (ip), vehicle: water) was 91 % of control and the T/C (dose: 6.0 mg/kg/injection, schedule: Q01DX009 (ip), vehicle: water) was 88 % of control and 104 % of control. For the same compound, the T/C (dose: 6.25 mg/kg/injection, schedule: Q04DX003 (ip), vehicle: water) was 100 % of control, the T/C (dose: 12.5 mg/kg/injection, schedule: Q04DX003 (ip), vehicle: water) was 102 % of control and the T/C (dose: 16.0 mg/kg/injection, schedule: Q01DX009 (ip), vehicle: water) was 89 % of control.

With `CCOC(=O)C1(C(=O)OCC)C2CC=CCC21` (stereo unspecified) the T/C (dose: 100.0 mg/kg/injection, schedule: Q01DX009 (ip), vehicle: saline) was 95 % of control, the T/C (dose: 200.0 mg/kg/injection, schedule: Q01DX009 (ip), vehicle: saline) was 100 % of control and the T/C (dose: 400.0 mg/kg/injection, schedule: Q01DX009 (ip), vehicle: saline) was 100 % of control.

For `NC(=S)N1N=C(c2cccc([N+](=O)[O-])c2)CCC1=O`, the T/C [1] was 100 % of control and the T/C [2] was 100 % of control.

With `CCC[CH2][Sn]([CH2]CCC)[CH2]CCC.CCC[CH2][Sn]([CH2]CCC)[CH2]CCC` the T/C (dose: 3.75 mg/kg/injection, schedule: Q01DX009 (ip), vehicle: saline with Tween-80) was 110 % of control, the T/C (dose: 7.5 mg/kg/injection, schedule: Q01DX009 (ip), vehicle: saline with Tween-80) was 92 % of control and the T/C (dose: 13.0 mg/kg/injection, schedule: Q04DX003 (ip), vehicle: saline with Tween-80) was 112 % of control. For the same compound, the T/C (dose: 15.0 mg/kg/injection, schedule: Q01DX009 (ip), vehicle: saline with Tween-80) was 114 % of control, the T/C [3] was 100 % of control and the T/C [4] was 95 % of control. For the same compound, the T/C (dose: 30.0 mg/kg/injection, schedule: Q04DX003 (ip), vehicle: saline with Tween-80) was 108 % of control.

In the case of `CCOC(=O)C(C(=O)OCC)C(C)C`, the T/C (dose: 100.0 mg/kg/injection, schedule: Q04DX003 (ip), vehicle: saline) is reported as 105 % of control, the T/C (dose: 200.0 mg/kg/injection, schedule: Q04DX003 (ip), vehicle: saline) is reported as 105 % of control and the T/C (dose: 400.0 mg/kg/injection, schedule: Q04DX003 (ip), vehicle: saline) is reported as 115 % of control.

In the case of `NC(CO)C(=O)NC(CCC(=O)O)C(=O)NC(CO)C(=O)NC(CCC(=O)O)C(=O)NC(Cc1ccc(N(CCCl)CCCl)cc1)C(=O)O` (stereo unspecified) (H-SESE[ξPhe(4-N(CH2CH2Cl)2)]-OH; configuration not given here), the T/C (dose: 5.0 mg/kg/injection, schedule: Q04DX003 (ip), vehicle: water) is reported as 100 % of control, the T/C (dose: 10.0 mg/kg/injection, schedule: Q04DX003 (ip), vehicle: water) is reported as 98 % of control and the T/C (dose: 20.0 mg/kg/injection, schedule: Q04DX003 (ip), vehicle: water) is reported as 97 % of control. The T/C (dose: 40.0 mg/kg/injection, schedule: Q04DX003 (ip), vehicle: water) was 100 % of control.

In the case of `O=S(=O)(F)c1ccc2nc(-c3cccc(Sc4ccccc4)c3)cc(Cl)c2c1`, the T/C [1] is reported as 90 % of control, the T/C [5] is reported as 100 % of control and the T/C [2] is reported as 100 % of control.

With `CC(C)(C)NCc1cc(C(C)(C)C)cc(-c2ccc(Cl)cc2)c1O` the T/C [6] was 99 % of control and the T/C [7] was 102 % of control.

`CC1CN1P(=S)(N1CC1C)N1CC1C` (stereo unspecified) was tested, and the T/C (dose: 1.25 mg/kg/injection, schedule: Q01DX010 (ip), vehicle: saline) was 104 % of control, the T/C (dose: 2.5 mg/kg/injection, schedule: Q01DX010 (ip), vehicle: saline) was 104 % of control and the T/C (dose: 5.0 mg/kg/injection, schedule: Q01DX010 (ip), vehicle: saline) was 104 % of control. For the same compound, the T/C (dose: 10.0 mg/kg/injection, schedule: Q01DX010 (ip), vehicle: saline) was 104 % of control.

With `CC(=O)OCCN1c2ccccc2Sc2cnccc21` the T/C [1] was 104 % of control, the T/C [5] was 90 % of control and the T/C [2] was 95 % of control.

`c1ccc(OCc2ccc(COc3ccccc3)cc2)cc1` was tested, and the T/C (dose: 6.25 mg/kg/injection, schedule: Q01DX009 (ip), vehicle: Klucel (hydroxypropylcellulose) (HPC)) was 96 % of control, the T/C (dose: 12.5 mg/kg/injection, schedule: Q01DX009 (ip), vehicle: Klucel (hydroxypropylcellulose) (HPC)) was 96 % of control and the T/C [4] was 92 % of control and 96 % of control. For the same compound, the T/C (dose: 25.0 mg/kg/injection, schedule: Q04DX003 (ip), vehicle: Klucel (hydroxypropylcellulose) (HPC)) was 100 % of control, the T/C (dose: 50.0 mg/kg/injection, schedule: Q04DX003 (ip), vehicle: Klucel (hydroxypropylcellulose) (HPC)) was 104 % of control and the T/C (dose: 100.0 mg/kg/injection, schedule: Q01DX009 (ip), vehicle: Klucel (hydroxypropylcellulose) (HPC)) was 92 % of control. For the same compound, the T/C (dose: 100.0 mg/kg/injection, schedule: Q04DX003 (ip), vehicle: Klucel (hydroxypropylcellulose) (HPC)) was 100 % of control.

`C[C@H]1C(=O)O[C@@H]2CCN3CC=C(COC(=O)[C@](C)(O)[C@@]1(C)O)[C@H]23` was tested, and the T/C (dose: 3.13 mg/kg/injection, schedule: Q01DX010 (ip), vehicle: saline) was 100 % of control, the T/C (dose: 6.2 mg/kg/injection, schedule: Q01DX009 (ip), vehicle: saline) was 111 % of control and the T/C (dose: 6.25 mg/kg/injection, schedule: Q01DX010 (ip), vehicle: saline) was 100 % of control. The T/C [8] was 122 % of control, the T/C (dose: 12.5 mg/kg/injection, schedule: Q01DX009 (ip), vehicle: water) was 109 % of control and the T/C (dose: 12.5 mg/kg/injection, schedule: Q01DX010 (ip), vehicle: saline) was 104 % of control. The T/C (dose: 25.0 mg/kg/injection, schedule: Q01DX009 (ip), vehicle: water) was 86 % of control, the T/C (dose: 25.0 mg/kg/injection, schedule: Q01DX010 (ip), vehicle: saline) was 104 % of control and the T/C (dose: 50.0 mg/kg/injection, schedule: Q01DX009 (ip), vehicle: water) was 118 % of control. For the same compound, the T/C (dose: 75.0 mg/kg/injection, schedule: Q01DX009 (ip), vehicle: water) was 104 % of control.

For `CNC(=N)c1ccc(NC(=N)c2ccc(NC(=N)c3ccc(NC(=N)c4ccc(C(=N)NC)cc4)cc3)cc2)cc1`, the T/C (dose: 6.0 mg/kg/injection, schedule: Q01DX009 (ip), vehicle: saline with Tween-80) was 120 % of control, the T/C (dose: 13.0 mg/kg/injection, schedule: Q01DX009 (ip), vehicle: saline with Tween-80) was 166 % of control and 175 % of control and the T/C (dose: 18.0 mg/kg/injection, schedule: Q04DX003 (ip), vehicle: saline with Tween-80) was 100 % of control. The T/C (dose: 20.0 mg/kg/injection, schedule: Q01DX009 (ip), vehicle: saline with Tween-80) was 157 % of control and 165 % of control, the T/C [3] was 109 % of control and the T/C (dose: 26.0 mg/kg/injection, schedule: Q04DX003 (ip), vehicle: saline with Tween-80) was 116 % of control. For the same compound, the T/C (dose: 30.0 mg/kg/injection, schedule: Q01DX009 (ip), vehicle: saline with Tween-80) was 214 % of control, the T/C (dose: 40.0 mg/kg/injection, schedule: Q04DX003 (ip), vehicle: saline with Tween-80) was 154 % of control and the T/C (dose: 80.0 mg/kg/injection, schedule: Q04DX003 (ip), vehicle: saline with Tween-80) was 90 % of control.

In the case of `C#CCSC(=N)N`, the T/C [8] is reported as 100 % of control, the T/C (dose: 33.0 mg/kg/injection, schedule: Q01DX009 (ip), vehicle: saline) is reported as 109 % of control and 118 % of control and the T/C (dose: 37.5 mg/kg/injection, schedule: Q04DX003 (ip), vehicle: saline) is reported as 109 % of control. The T/C (dose: 50.0 mg/kg/injection, schedule: Q01DX009 (ip), vehicle: saline) was 100 % of control and 115 % of control and the T/C (dose: 75.0 mg/kg/injection, schedule: Q04DX003 (ip), vehicle: saline) was 109 % of control.

In the case of `Cc1ncc([N+](=O)[O-])n1CCN=[N+]=[N-]`, the T/C [1] is reported as 104 % of control and the T/C [5] is reported as 123 % of control.

For `CN(C(=O)/C=C/C(=O)O)c1ccccc1`, the T/C (dose: 25.0 mg/kg/injection, schedule: Q01DX009 (ip), vehicle: saline with Tween-80) was 109 % of control, the T/C [6] was 109 % of control and the T/C [7] was 109 % of control. For the same compound, the T/C [9] was 113 % of control and the T/C (dose: 400.0 mg/kg/injection, schedule: Q01DX009 (ip), vehicle: saline with Tween-80) was 100 % of control.

`CCOC(=O)Sc1ncnc2nc[nH]c12` was tested, and the T/C [7] was 109 % of control and the T/C [9] was 90 % of control.

With `CCOC(=O)c1c(C)cc(C)nc1[S][Sn]([Cl])([Cl])[S]c1nc(C)cc(C)c1C(=O)OCC` the T/C [6] was 99 % of control, the T/C [7] was 107 % of control and the T/C [9] was 106 % of control.
